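A five-concentration, 48-hour dose response in 96-well plates underlies each endpoint, interpolated linearly between surrounding concentrations. At the GI50, growth is halved.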 Activity calls are given as the source filed them. Rule as the data show it: active = GI50 up to about 1.1 µM and inactive = higher.
Assays:
Assay in all cases: DTP human tumour cell line panel, 48 h
[1] = test system: A549
[2] = test system: ACHN
[3] = test system: CAKI-1
[4] = test system: CCRF-CEM
[5] = test system: DU-145
[6] = test system: EKVX
[7] = test system: HCC 2998
[8] = test system: HCT-116
[9] = test system: HL-60
[10] = test system: Hs-578T
[11] = test system: IGROV-1
[12] = test system: K562
[13] = test system: M14
[14] = test system: MDA-N
[15] = test system: NCI/ADR-RES
[16] = test system: SF-268
[17] = test system: SK-OV-3
[18] = test system: SR
[19] = test system: UACC-62
[20] = test system: Malme-3M

Compound | GI50 [1] | GI50 [2] | GI50 [3] | GI50 [4] | GI50 [5] | GI50 [6] | GI50 [7] | GI50 [8] | GI50 [9] | GI50 [10] | GI50 [11] | GI50 [12] | GI50 [13] | GI50 [14] | GI50 [15] | GI50 [16] | GI50 [17] | GI50 [18] | GI50 [19] | GI50 [20]
COc1cccc(CC(=O)N2CCN(CCCc3ccccc3)CC2)c1 | 66.5 µM (inactive) | 83.8 µM (inactive) | 80.4 µM (inactive) | 89.3 µM (inactive) | > 100 µM (inactive) | 59.6 µM (inactive) | 98.4 µM (inactive) | 65.6 µM (inactive) | 61.2 µM (inactive) | > 100 µM (inactive) | > 100 µM (inactive) | 33.9 µM (inactive) | 63.8 µM (inactive) | 90.8 µM (inactive) | 27.9 µM (inactive) | > 100 µM (inactive) | > 100 µM (inactive) | 42.1 µM (inactive) | > 100 µM (inactive) | 
Cc1ccc(-c2c3c(n(C4OC(CO)C(O)C(O)C4O)c(=S)c2C#N)CC(C)(C)CC3=O)cc1 (stereo not given) | > 100 µM (inactive) | 65.5 µM (inactive) | > 100 µM (inactive) | 68.2 µM (inactive) | > 100 µM (inactive) |  | > 100 µM (inactive) | 40.4 µM (inactive) | 41.5 µM (inactive) | 70.6 µM (inactive) | > 100 µM (inactive) | 45.2 µM (inactive) | 93.5 µM (inactive) | 46 µM (inactive) | > 100 µM (inactive) | > 100 µM (inactive) |  | 37 µM (inactive) | 46.5 µM (inactive) | 96.6 µM (inactive)
O=C(/C=C/c1ccc(OCC(=O)N2CCN(c3ccccc3)CC2)cc1)c1ccc(Cl)cc1 | 38.7 µM (inactive) | 22.4 µM (inactive) | 78.5 µM (inactive) | > 100 µM (inactive) | 51.2 µM (inactive) | > 60.7 µM (inactive) | > 100 µM (inactive) | 54.5 µM (inactive) | 98.2 µM (inactive) | 21.7 µM (inactive) | 38.6 µM (inactive) | > 100 µM (inactive) | 84.7 µM (inactive) | > 100 µM (inactive) | 59.2 µM (inactive) | 26.2 µM (inactive) | 27.5 µM (inactive) | > 100 µM (inactive) | 61.8 µM (inactive) | 57.3 µM (inactive)
CC1(C)OC(=O)N(c2ccccc2)C12C=Cc1cccc([N+](=O)[O-])c1O2 (stereo not given) | 79.1 µM (inactive) | > 100 µM (inactive) | > 100 µM (inactive) | 37.3 µM (inactive) | > 100 µM (inactive) | 60.8 µM (inactive) | > 100 µM (inactive) | 67 µM (inactive) | 17.5 µM (inactive) | 73.6 µM (inactive) | 96.6 µM (inactive) | 35.1 µM (inactive) | 51.6 µM (inactive) | 42.5 µM (inactive) | 48.2 µM (inactive) | > 100 µM (inactive) | 28.2 µM (inactive) | 9.18 µM (inactive) | 80 µM (inactive) | 
O=C1OC(c2ccccc2)=N/C1=C\c1cccc(F)c1 | > 100 µM (inactive) | > 100 µM (inactive) | > 100 µM (inactive) | 35.7 µM (inactive) | > 100 µM (inactive) | > 100 µM (inactive) | 72.3 µM (inactive) | > 100 µM (inactive) | 24.9 µM (inactive) | 36.3 µM (inactive) | 52.5 µM (inactive) | > 100 µM (inactive) | 57.8 µM (inactive) | 56.6 µM (inactive) | 27.7 µM (inactive) | 34.5 µM (inactive) | > 100 µM (inactive) | 22.9 µM (inactive) | > 100 µM (inactive) | 
CCCC[C@@H](C)/C=C1\CN2CCC[C@H]2[C@@](C)(OCc2ccccc2)[C@@H]1O | > 43.7 µM (inactive) | > 50 µM (inactive) | > 50 µM (inactive) | > 50 µM (inactive) | > 14.4 µM (inactive) | > 31.1 µM (inactive) | > 50 µM (inactive) | > 50 µM (inactive) |  | > 50 µM (inactive) | > 30.6 µM (inactive) | > 29.9 µM (inactive) | > 50 µM (inactive) | > 44 µM (inactive) | > 50 µM (inactive) | > 29.4 µM (inactive) | > 50 µM (inactive) | > 50 µM (inactive) | > 50 µM (inactive) | > 50 µM (inactive)
Cc1ccc(S(=O)(=O)N2CCN(CCO)CCN(S(=O)(=O)c3ccc(C)cc3)CCN(CCO)CC2)cc1 | 20.7 µM (inactive) | 31 µM (inactive) | 37.8 µM (inactive) | 22.9 µM (inactive) | 15 µM (inactive) | 18.2 µM (inactive) | 15.4 µM (inactive) | 15 µM (inactive) | 18 µM (inactive) | 30.1 µM (inactive) | 21.5 µM (inactive) | 17.1 µM (inactive) | 17.1 µM (inactive) | 27.2 µM (inactive) | 18.5 µM (inactive) | 26.1 µM (inactive) |  | 12.3 µM (inactive) | 18.2 µM (inactive) | 
CC1=NN(C(=O)CC(=O)Nc2cccc(Cl)c2)C(=O)C1/N=N/c1ccc(C(=O)O)cc1 (stereo not given) | > 100 µM (inactive) | > 100 µM (inactive) | > 100 µM (inactive) | 48.4 µM (inactive) | > 100 µM (inactive) | > 100 µM (inactive) | > 100 µM (inactive) | > 100 µM (inactive) | > 100 µM (inactive) | > 100 µM (inactive) | > 100 µM (inactive) | > 100 µM (inactive) | > 100 µM (inactive) | > 100 µM (inactive) | > 100 µM (inactive) | > 100 µM (inactive) |  | 48.9 µM (inactive) | > 100 µM (inactive) | > 100 µM (inactive)
Cn1c(=O)oc2cc(C(=O)CN3CCN(Cc4ccc5c(c4)OCO5)CC3)c(Cl)cc21 |  | > 100 µM (inactive) | > 100 µM (inactive) | > 100 µM (inactive) | > 100 µM (inactive) |  | > 100 µM (inactive) | > 100 µM (inactive) | > 100 µM (inactive) | > 100 µM (inactive) | > 100 µM (inactive) | > 100 µM (inactive) |  | > 100 µM (inactive) | > 100 µM (inactive) | > 100 µM (inactive) | > 100 µM (inactive) | > 100 µM (inactive) | > 100 µM (inactive) | > 100 µM (inactive)
S=C1Cc2c(-c3ccccc3)cc(-c3ccc(Cl)cc3)nc2-c2ccccc2N1 | 3.17 µM (inactive) | 1.04 µM (active) | 1.36 µM (inactive) | 3.08 µM (inactive) | 13 µM (inactive) | 2.52 µM (inactive) | 5.07 µM (inactive) | 1.85 µM (inactive) | 16.9 µM (inactive) | 1.32 µM (inactive) | 0.971 µM (active) |  | 3.97 µM (inactive) | 4.27 µM (inactive) | 2.38 µM (inactive) | 1.89 µM (inactive) | 2.38 µM (inactive) | > 68.7 µM (inactive) | 2.45 µM (inactive) | 3.33 µM (inactive)
NC(=O)C1=C(c2ccccc2)c2ccccc2C1=O | 18.6 µM (inactive) | 11.4 µM (inactive) | 16 µM (inactive) | 2.75 µM (inactive) | 17.1 µM (inactive) | 18.8 µM (inactive) | 15.8 µM (inactive) | 16.9 µM (inactive) | 3.57 µM (inactive) | 24.8 µM (inactive) | 16.1 µM (inactive) | 38.1 µM (inactive) | 19.1 µM (inactive) | 19.5 µM (inactive) | 17.7 µM (inactive) | 17.8 µM (inactive) | 18.3 µM (inactive) | 4.78 µM (inactive) | 17.4 µM (inactive) | 
O=c1ccn([C@@H]2C[C@@H]2CO)c(=O)[nH]1 | > 100 µM (inactive) | > 100 µM (inactive) | > 100 µM (inactive) | > 100 µM (inactive) | > 100 µM (inactive) | > 100 µM (inactive) | > 100 µM (inactive) | > 100 µM (inactive) | > 100 µM (inactive) | > 100 µM (inactive) | > 100 µM (inactive) | > 100 µM (inactive) | > 100 µM (inactive) | > 100 µM (inactive) | > 100 µM (inactive) | > 100 µM (inactive) |  | > 100 µM (inactive) | > 100 µM (inactive) | > 100 µM (inactive)
Cn1c([C@H](C#N)C(=O)c2cc(O)ccc2[N+](=O)[O-])nc2ccccc21 | > 100 µM (inactive) | > 100 µM (inactive) | > 100 µM (inactive) | 10.6 µM (inactive) | > 100 µM (inactive) | > 100 µM (inactive) | > 100 µM (inactive) | > 100 µM (inactive) | > 100 µM (inactive) | > 100 µM (inactive) | > 100 µM (inactive) |  | > 100 µM (inactive) | > 100 µM (inactive) | > 100 µM (inactive) | > 100 µM (inactive) |  | 5.98 µM (inactive) | > 100 µM (inactive) | 17.2 µM (inactive)
CN(C)c1nc2n(CCO)ccnc-2c(=O)n1 | > 100 µM (inactive) | > 100 µM (inactive) | > 100 µM (inactive) | > 100 µM (inactive) | > 100 µM (inactive) | > 100 µM (inactive) | > 100 µM (inactive) | > 100 µM (inactive) |  | > 100 µM (inactive) | > 100 µM (inactive) | > 100 µM (inactive) | > 100 µM (inactive) | > 100 µM (inactive) | > 100 µM (inactive) | > 100 µM (inactive) | > 100 µM (inactive) | > 100 µM (inactive) | > 100 µM (inactive) | > 100 µM (inactive)
N#CCC(=O)N/N=C\C(O)C(O)C(O)C(O)CO (stereo not given) | > 100 µM (inactive) | > 100 µM (inactive) | > 100 µM (inactive) | > 100 µM (inactive) | > 100 µM (inactive) |  | > 100 µM (inactive) |  | > 100 µM (inactive) | > 100 µM (inactive) | > 100 µM (inactive) | > 100 µM (inactive) | > 100 µM (inactive) | > 100 µM (inactive) | > 100 µM (inactive) | > 100 µM (inactive) | > 100 µM (inactive) | > 100 µM (inactive) | > 100 µM (inactive) | > 100 µM (inactive)

From ChEMBL document CHEMBL1201862, “PubChem BioAssay data set” (2004)
